Measured values taken from patent US8367708B2, “Phenyl-isoxazol-3-ol derivative” (MSD K.K., priority 2006, dated 2013).

Target: T1, human GPR120 (Homo sapiens, UniProt Q5NUL3)
T1 construct: expressed in transfected cells
T1 sequence (Q5NUL3 1-361): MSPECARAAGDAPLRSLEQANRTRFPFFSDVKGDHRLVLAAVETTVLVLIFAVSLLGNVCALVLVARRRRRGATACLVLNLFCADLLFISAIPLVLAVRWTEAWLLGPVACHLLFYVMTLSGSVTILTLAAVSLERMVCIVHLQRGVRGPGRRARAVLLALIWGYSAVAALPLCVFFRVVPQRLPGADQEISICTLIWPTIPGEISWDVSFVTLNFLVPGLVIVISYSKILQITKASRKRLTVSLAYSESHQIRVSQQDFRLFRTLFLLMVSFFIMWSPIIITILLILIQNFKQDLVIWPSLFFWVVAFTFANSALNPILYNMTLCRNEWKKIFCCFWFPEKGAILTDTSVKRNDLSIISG
Assay: Measurement of intracellular calcium concentration (FLIPR), GPR120 agonist action
Type: cell-based
Conditions: human GPR120 expression CHO cells, Fluo-4 AM, read-out: IC50 (GPR120 agonist action)

Row | EC50 | Compound
1 | 280 nM | COCc1cccc(CCOc2ccc(-c3cc(O)no3)cc2)c1 [Example 43, 5-(4-(2-(3-(methoxymethyl)phenyl)ethoxy)phenyl)isoxazol-3-ol]
2 | 70 nM | CC(C)Sc1ncccc1COc1ccc(-c2cc(O)no2)cc1 [Example 15, 5-(4-((2-(isopropylthio)pyridin-3-yl)methoxy)phenyl)isoxazol-3-ol]
3 | 620 nM | Cc1oc(-c2ccccc2)nc1CCOc1ccc(-c2cc(O)no2)cc1 [Example 33, 5-(4-(2-(5-methyl-2-phenyl-1,3-oxazol-4-yl)ethoxy)phenyl)isoxazol-3-ol]
4 | 180 nM | Oc1cc(-c2ccc(OCc3cccc(Oc4ccccc4)n3)cc2)on1 [Example 3, 5-(4-((6-phenoxypyridin-2-yl)methoxy)phenyl)isoxazol-3-ol]
5 | 150 nM | CC(C)Nc1cccc(CCOc2ccc(-c3cc(O)no3)cc2)c1 [Example 41]

The remaining lines, values behind:

Row | Compound | EC50
6 | Oc1cc(-c2cc(F)c(OCc3ccccc3Oc3ccccc3)c(F)c2)on1 [Example 26, 5-(3,5-difluoro-4-((2-phenoxybenzyl)oxy)phenyl)isoxazol-3-ol] | 300 nM
7 | Oc1cc(-c2ccc(OCCc3cccc(Oc4ccccc4)c3)cc2)on1 [Example 38] | 250 nM
8 | Oc1cc(-c2ccc(COc3cccc(Oc4ccccc4)c3)cc2)on1 [Example 45, 5-(4-((3-phenoxyphenoxy)methyl)phenyl)isoxazol-3-ol] | 170 nM
9 | Oc1cc(-c2ccc(OCc3ccccc3Oc3ccccc3)nc2)on1 [Example 9, 5-(6-((2-phenoxybenzyl)oxy)pyridin-3-yl)isoxazol-3-ol] | 180 nM
10 | CCOc1cccc(OCCc2ccc(-c3cc(O)no3)cc2)c1 [Example 36, 5-(4-(2-(3-ethoxyphenoxy)ethyl)phenyl)isoxazol-3-ol] | 100 nM
